The values that follow come from ChEMBL document CHEMBL4014306, “Pyrazolopyrimidines as Potent Stimulators for Transient Receptor Potential Canonical 3/6/7 Channels” (J Med Chem, 2017).

Calls of active or inactive are those of the source. The rule behind the calls is not given here.

What all share (format): cell-based
Test [1] deals with T1, Short transient receptor potential channel 6 (Mus musculus, UniProt Q61143).
T1 sequence (Q61143 whole entry): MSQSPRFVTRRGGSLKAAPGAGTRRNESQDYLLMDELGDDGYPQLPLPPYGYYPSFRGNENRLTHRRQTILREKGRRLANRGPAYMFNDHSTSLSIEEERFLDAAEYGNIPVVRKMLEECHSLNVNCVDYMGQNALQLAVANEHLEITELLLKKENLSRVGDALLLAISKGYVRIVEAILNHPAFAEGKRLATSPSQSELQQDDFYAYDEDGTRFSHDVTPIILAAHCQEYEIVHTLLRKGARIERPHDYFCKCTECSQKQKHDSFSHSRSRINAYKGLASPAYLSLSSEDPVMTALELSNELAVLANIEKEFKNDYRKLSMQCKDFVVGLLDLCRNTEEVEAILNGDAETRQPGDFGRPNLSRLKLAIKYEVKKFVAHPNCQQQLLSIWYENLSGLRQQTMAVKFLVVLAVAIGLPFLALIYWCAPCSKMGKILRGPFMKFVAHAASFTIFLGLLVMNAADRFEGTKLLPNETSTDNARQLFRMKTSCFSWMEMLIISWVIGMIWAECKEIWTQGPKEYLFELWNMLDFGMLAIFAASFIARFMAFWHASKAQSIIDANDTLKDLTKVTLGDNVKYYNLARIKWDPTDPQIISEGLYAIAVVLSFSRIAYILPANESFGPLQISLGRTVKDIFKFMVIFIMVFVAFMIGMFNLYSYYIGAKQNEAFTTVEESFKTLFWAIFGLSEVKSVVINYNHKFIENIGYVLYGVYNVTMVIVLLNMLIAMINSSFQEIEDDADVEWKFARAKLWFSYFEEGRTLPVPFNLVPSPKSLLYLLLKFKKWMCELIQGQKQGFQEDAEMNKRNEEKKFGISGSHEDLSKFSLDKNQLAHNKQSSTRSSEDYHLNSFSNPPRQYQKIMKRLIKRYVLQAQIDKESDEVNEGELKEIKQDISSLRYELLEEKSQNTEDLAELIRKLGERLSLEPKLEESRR
Briefly: Agonist activity at mouse TRPC6 expressed in HEK293 cells co-expressing Gq11-PLCbeta fused M5 receptor assessed as increase in intracellular calcium level measured for 2.5 mins by Fluo-8-AM dye-based fluorescence assay. Particulars: read-out: EC50. For orientation: Calcium flux is commonly read through the fluorescence of an indicator in the cells.

Test [2] concerns the target T2, Short transient receptor potential channel 7 (Homo sapiens, UniProt Q9HCX4).
T2 sequence (Q9HCX4 whole entry): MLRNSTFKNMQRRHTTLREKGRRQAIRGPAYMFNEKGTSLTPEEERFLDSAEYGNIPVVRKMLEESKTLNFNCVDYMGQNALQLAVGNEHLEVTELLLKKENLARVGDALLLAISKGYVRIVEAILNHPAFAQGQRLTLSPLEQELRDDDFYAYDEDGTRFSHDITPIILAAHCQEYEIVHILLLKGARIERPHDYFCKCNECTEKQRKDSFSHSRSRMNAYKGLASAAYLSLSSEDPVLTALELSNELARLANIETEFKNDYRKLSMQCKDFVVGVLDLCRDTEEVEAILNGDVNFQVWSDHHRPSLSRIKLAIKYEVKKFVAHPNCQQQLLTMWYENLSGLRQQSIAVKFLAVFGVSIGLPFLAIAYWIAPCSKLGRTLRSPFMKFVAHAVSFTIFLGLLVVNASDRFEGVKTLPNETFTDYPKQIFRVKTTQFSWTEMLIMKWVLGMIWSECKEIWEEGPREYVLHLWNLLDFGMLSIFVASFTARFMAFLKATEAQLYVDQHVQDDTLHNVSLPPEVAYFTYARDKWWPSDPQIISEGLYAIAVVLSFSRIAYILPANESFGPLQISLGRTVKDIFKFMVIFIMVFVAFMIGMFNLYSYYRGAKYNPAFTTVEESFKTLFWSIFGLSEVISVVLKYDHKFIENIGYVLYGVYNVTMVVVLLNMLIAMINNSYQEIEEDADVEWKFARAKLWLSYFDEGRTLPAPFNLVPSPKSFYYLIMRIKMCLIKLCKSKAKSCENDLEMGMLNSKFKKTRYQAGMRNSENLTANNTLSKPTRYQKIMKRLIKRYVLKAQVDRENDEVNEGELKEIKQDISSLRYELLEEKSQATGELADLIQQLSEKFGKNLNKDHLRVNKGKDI
Kind of test: Agonist activity at human TRPC7 expressed in HEK293 cells assessed as increase in intracellular calcium level measured for 2.5 mins in presence of 2 mM Ca2+ by Fluo8-AM dye-based fluorescence assay.

Test [3] concerns the target T3, Short transient receptor potential channel 4 (Mus musculus) (UniProt Q9QUQ5).
T3 sequence (whole entry): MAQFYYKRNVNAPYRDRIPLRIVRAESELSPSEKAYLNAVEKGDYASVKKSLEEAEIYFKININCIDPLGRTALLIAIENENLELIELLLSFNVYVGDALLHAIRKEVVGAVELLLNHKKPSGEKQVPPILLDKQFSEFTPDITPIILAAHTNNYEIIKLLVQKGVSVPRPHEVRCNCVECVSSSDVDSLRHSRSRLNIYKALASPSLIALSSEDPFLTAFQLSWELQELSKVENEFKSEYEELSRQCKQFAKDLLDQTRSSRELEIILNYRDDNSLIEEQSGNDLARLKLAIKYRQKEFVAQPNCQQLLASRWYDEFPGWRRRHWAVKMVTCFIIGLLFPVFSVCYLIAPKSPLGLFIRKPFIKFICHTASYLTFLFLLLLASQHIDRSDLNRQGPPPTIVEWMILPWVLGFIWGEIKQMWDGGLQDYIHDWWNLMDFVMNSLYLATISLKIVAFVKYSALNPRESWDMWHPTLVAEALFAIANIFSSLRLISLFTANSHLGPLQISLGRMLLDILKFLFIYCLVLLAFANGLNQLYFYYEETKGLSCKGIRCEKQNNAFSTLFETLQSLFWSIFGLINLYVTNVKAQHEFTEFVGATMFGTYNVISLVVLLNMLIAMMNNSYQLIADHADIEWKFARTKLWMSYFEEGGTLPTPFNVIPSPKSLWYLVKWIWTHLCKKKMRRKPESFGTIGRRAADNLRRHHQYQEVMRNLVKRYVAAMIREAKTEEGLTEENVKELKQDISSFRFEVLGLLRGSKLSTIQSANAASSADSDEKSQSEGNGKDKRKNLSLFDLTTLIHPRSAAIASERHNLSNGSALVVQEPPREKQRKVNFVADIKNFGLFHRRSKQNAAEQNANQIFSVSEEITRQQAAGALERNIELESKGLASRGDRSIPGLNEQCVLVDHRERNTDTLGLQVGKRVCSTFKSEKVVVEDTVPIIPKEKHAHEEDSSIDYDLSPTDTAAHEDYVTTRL
Briefly: Agonist activity at mouse TRPC4beta expressed in HEK293 cells co-expressing MOR assessed as induction of membrane depolarization at 33 uM measured for 2.5 mins by FLIPR membrane potential dye-based fluorescence assay.

The EC50 is the concentration that produces a half-maximal response. For the compound `CCOC(=O)N1CCC(c2cc(O)n3nc(C)c(-c4ccc(F)cc4)c3n2)CC1`, the concentration giving a half-maximal response (EC50) was determined as 4.66 µM in test [1] and 0.497 µM in test [2]. In test [3], the result was inactive.
As for `Cc1nn2c(O)cc(C3CCN(C(=O)OCc4ccccc4)CC3)nc2c1-c1ccc(Cl)cc1`, the values for the EC50 in test [1] and in test [2] were 7.79 µM and 0.213 µM, respectively. Moreover, the outcome in test [3] was inactive.
As for `Cc1nn2c(O)cc(C3CCN(C(=O)OCc4ccccc4)CC3)nc2c1-c1ccc(F)cc1`, the 50% effective concentration (EC50) in test [1] stood at 3.91 µM; in test [2], 0.314 µM. Moreover, in test [3], the outcome was inactive.
In the case of `CCOC(=O)N1CCC(c2cc(O)n3nc(C)c(-c4ccc(C(F)(F)F)cc4)c3n2)CC1`, in test [2], the EC50 worked out at 0.09 µM. In addition, the outcome in test [3] was inactive.
